The source made the active and inactive calls. No cut-off for these calls is given here.
Target: Signal transducer and activator of transcription 3 (Homo sapiens) (UniProt P40763)
Test: Inhibition of STAT3 in human HeLa cells after 24 hrs by luciferase reporter gene assay
Type: cell-based

Signal transducer and activator of transcription 3 (Homo sapiens), sequence (P40763 whole entry): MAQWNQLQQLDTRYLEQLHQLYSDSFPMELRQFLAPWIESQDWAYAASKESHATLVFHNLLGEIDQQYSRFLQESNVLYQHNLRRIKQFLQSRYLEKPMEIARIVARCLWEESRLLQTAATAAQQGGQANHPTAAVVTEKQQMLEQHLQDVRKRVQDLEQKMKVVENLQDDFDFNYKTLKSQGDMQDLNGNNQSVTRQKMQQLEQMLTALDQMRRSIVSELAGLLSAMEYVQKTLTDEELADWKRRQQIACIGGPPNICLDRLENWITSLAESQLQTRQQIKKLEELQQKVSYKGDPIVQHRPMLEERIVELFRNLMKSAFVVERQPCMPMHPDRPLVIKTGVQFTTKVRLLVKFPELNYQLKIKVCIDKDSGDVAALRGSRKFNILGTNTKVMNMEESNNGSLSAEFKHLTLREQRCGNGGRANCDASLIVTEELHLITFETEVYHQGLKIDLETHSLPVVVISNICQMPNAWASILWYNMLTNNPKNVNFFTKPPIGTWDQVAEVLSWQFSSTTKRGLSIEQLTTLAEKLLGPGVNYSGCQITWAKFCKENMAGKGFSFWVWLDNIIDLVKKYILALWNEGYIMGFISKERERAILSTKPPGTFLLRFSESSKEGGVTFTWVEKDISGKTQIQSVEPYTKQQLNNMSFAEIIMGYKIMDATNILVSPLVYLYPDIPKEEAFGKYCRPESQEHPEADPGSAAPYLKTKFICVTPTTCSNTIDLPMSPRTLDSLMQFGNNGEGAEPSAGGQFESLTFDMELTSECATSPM

inhibition: inactive
SMILES: COc1ccc(-c2cc(=O)c3c(O)cc(O[C@@H]4O[C@H](CO[C@@H]5O[C@@H](C)[C@H](O)[C@@H](O)[C@H]5O)[C@@H](O)[C@H](O)[C@H]4O)cc3o2)cc1O
